Results taken from US20240343704A1, “HALO-SUBSTITUTED AMINO PYRIDINE COMPOUNDS AS INHIBITORS OF THE HAEMATOPOIETIC PROGENITOR KINASE 1 (HPK1)” (priority 2021, published 2024).

Target: T1, Recombinant (1-346) HPK1 (h) (Homo sapiens, UniProt Q92918)
T1 construct: Recombinant (1-346) HPK1 (h) is incubated with 8 mM MOPS pH 7.0
T1 sequence (Q92918 1-346): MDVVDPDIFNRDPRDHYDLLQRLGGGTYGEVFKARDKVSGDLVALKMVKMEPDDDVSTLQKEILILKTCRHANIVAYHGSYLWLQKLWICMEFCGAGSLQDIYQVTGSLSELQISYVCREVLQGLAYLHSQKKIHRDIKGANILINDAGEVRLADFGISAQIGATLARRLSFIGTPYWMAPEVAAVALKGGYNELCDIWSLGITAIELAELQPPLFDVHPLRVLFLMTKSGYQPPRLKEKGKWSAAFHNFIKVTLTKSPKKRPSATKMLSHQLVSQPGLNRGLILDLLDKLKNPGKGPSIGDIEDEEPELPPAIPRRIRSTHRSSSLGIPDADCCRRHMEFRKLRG
Assay: HPK1 Human STE Kinase Enzymatic Radiometric Assay
Assay type: biochemical
Conditions: read-out: HPK1 IC50 nM Range*
Protocol: A stock solution of 10 mM of test compound is prepared in DMSO. The compound plate was prepared by 3-fold and 9-point serial dilutions. […] The reaction is initiated by The addition of the Mg/ATP mix. After incubation for 40 minutes at RT, the reaction is stopped by the addition of phosphoric acid to a concentration of 0.5%.

An IC50 of 0.1 to 10 nM was found for `CN(C)Cc1cc(-c2cc(-c3cc4c(cc3F)C(=O)NCC4)c(N)nc2F)ccc1N1CCN(C2CCCC2)CC1` [I-452, 6-(2-amino-5-(4-(4-cyclopentylpiperazin-1-yl)-3-((dimethylamino)methyl)phenyl)-6-fluoropyridin-3-yl)-7-fluoro-3,4-dihydroisoquinolin-1(2H)-one] in this work.
An IC50 of 0.1 to 10 nM was found for `CN(C)Cc1cc(-c2cc(-c3ccc4c(=O)[nH]ccc4c3)c(N)nc2F)ccc1N1CCN(CCCC(F)F)CC1` [I-453, 6-(2-amino-5-(4-(4-(4,4-difluorobutyl)piperazin-1-yl)-3-((dimethylamino)methyl)phenyl)-6-fluoropyridin-3-yl)isoquinolin-1(2H)-one] in this work.
An IC50 of 0.1 to 10 nM was found for `Cc1[nH]c(=O)c2ccc(-c3cc(-c4ccc(N5CCN(CC6CC6)CC5)cc4)c(F)nc3N)cc2c1F` [I-456, 6-(2-amino-5-(4-(4-(cyclopropylmethyl)piperazin-1-yl)phenyl)-6-fluoropyridin-3-yl)-4-fluoro-3-methylisoquinolin-1(2H)-one] in this work.
An IC50 of 0.1 to 10 nM was found for `CC(C)N1CCN(c2ccc(-c3cc(-c4ncc5c(n4)CCNC5=O)c(N)nc3F)cc2)CC1` [I-458, 2-(2-amino-6-fluoro-5-(4-(4-isopropylpiperazin-1-yl)phenyl)pyridin-3-yl)-7,8-dihydropyrido[4,3-d]pyrimidin-5(6H)-one] in this work.
An IC50 of 11 to 100 nM was found for `COc1ccc(-c2cc(-c3ccc4c(c3)CCNC4=O)c(N)nc2F)cc1CN(C)C` [I-459, 6-(2-amino-5-(3-((dimethylamino)methyl)-4-methoxyphenyl)-6-fluoropyridin-3-yl)-3,4-dihydroisoquinolin-1(2H)-one] in this work.
An IC50 of 0.1 to 10 nM was found for `CN(C)Cc1cc(-c2cc(-c3ccc4c(c3)CCNC4=O)c(N)nc2F)ccc1N1CCN(C2CCC2)CC1` [I-461, 6-(2-amino-5-(4-(4-cyclobutylpiperazin-1-yl)-3-((dimethylamino)methyl)phenyl)-6-fluoropyridin-3-yl)-3,4-dihydroisoquinolin-1(2H)-one] in this work.
An IC50 of 0.1 to 10 nM was found for `CN(C)Cc1cc(-c2cc(-c3cc4c(cc3F)C(=O)NCC4)c(N)nc2F)ccc1N1CCN(C2CCC2)CC1` [I-462, 6-(2-amino-5-(4-(4-cyclobutylpiperazin-1-yl)-3-((dimethylamino)methyl)phenyl)-6-fluoropyridin-3-yl)-7-fluoro-3,4-dihydroisoquinolin-1(2H)-one] in this work.
`CN1CCc2c(cccc2-c2cc(-c3ccc4c(c3)CCNC4=O)c(N)nc2F)C1` [I-463, 6-(2-amino-6-fluoro-5-(2-methyl-1,2,3,4-tetrahydroisoquinolin-5-yl)pyridin-3-yl)-3,4-dihydroisoquinolin-1(2H)-one] was tested, and the IC50 was > 1000 nM.
With `CN1CCc2c(cccc2-c2cc(-c3cc4c(cc3F)C(=O)NCC4)c(N)nc2F)C1` [I-464, 6-(2-amino-6-fluoro-5-(2-methyl-1,2,3,4-tetrahydroisoquinolin-5-yl)pyridin-3-yl)-7-fluoro-3,4-dihydroisoquinolin-1(2H)-one] the IC50 was > 1000 nM.
An IC50 of 101 to 1000 nM was found for `Cc1nc2cc(-c3cc(-c4ccc(N5CCN(C(C)C)CC5)cc4)c(F)nc3N)ccc2c(=O)n1N` [I-465, 3-amino-7-(2-amino-6-fluoro-5-(4-(4-isopropylpiperazin-1-yl)phenyl)pyridin-3-yl)-2-methylquinazolin-4(3H)-one] in this work.
An IC50 of 11 to 100 nM was found for `CC(C)N1CCN(c2ccc(-c3cc(-c4ccc5c(=O)[nH]cc(Cl)c5c4)c(N)nc3F)cc2)CC1` [I-466, 6-(2-amino-6-fluoro-5-(4-(4-isopropylpiperazin-1-yl)phenyl)pyridin-3-yl)-4-chloroisoquinolin-1(2H)-one] in this work.
An IC50 of 0.1 to 10 nM was found for `Cc1nc2cc(-c3cc(-c4ccc(N5CCN(CCCC(F)F)CC5)cc4)c(F)nc3N)cc(F)c2c(=O)[nH]1` [I-467, 7-(2-amino-5-(4-(4-(4,4-difluorobutyl)piperazin-1-yl)phenyl)-6-fluoropyridin-3-yl)-5-fluoro-2-methylquinazolin-4(3H)-one] in this work.
An IC50 of 11 to 100 nM was found for `Cc1nc2cc(-c3cc(-c4ccc([C@]56C[C@H]5CN(C)C6)cc4)c(F)nc3N)ccc2c(=O)[nH]1` [I-468, 7-(2-amino-6-fluoro-5-(4-((1S,5R)-3-methyl-3-azabicyclo[3.1.0]hexan-1-yl)phenyl)pyridin-3-yl)-2-methylquinazolin-4(3H)-one] in this work.
An IC50 of 11 to 100 nM was found for `Cc1nc2cc(-c3cc(-c4ccc([C@]56C[C@H]5CN(C)C6)cc4)c(F)nc3N)cc(F)c2c(=O)[nH]1` [I-469, 7-(2-amino-6-fluoro-5-(4-((1S,5R)-3-methyl-3-azabicyclo[3.1.0]hexan-1-yl)phenyl)pyridin-3-yl)-5-fluoro-2-methylquinazolin-4(3H)-one] in this work.
An IC50 of 0.1 to 10 nM was found for `CN1C[C@@H]2C[C@]2(c2ccc(-c3cc(-c4ccc5c(=O)[nH]cc(F)c5c4)c(N)nc3F)cc2)C1` [I-470, 6-(2-amino-6-fluoro-5-(4-((1S,5R)-3-methyl-3-azabicyclo[3.1.0]hexan-1-yl)phenyl)pyridin-3-yl)-4-fluoroisoquinolin-1(2H)-one] in this work.
An IC50 of 0.1 to 10 nM was found for `Cc1c[nH]c(=O)c2ccc(-c3cc(-c4ccc([C@]56C[C@H]5CN(C)C6)cc4)c(F)nc3N)cc12` [I-471, 6-(2-amino-6-fluoro-5-(4-((1S,5R)-3-methyl-3-azabicyclo[3.1.0]hexan-1-yl)phenyl)pyridin-3-yl)-4-methylisoquinolin-1(2H)-one] in this work.
An IC50 of 0.1 to 10 nM was found for `Cc1nc2cc(-c3cc(-c4ccc(N5CCN(C6CCC6)CC5)cc4)c(F)nc3N)ccc2c(=O)[nH]1` [I-472, 7-(2-amino-5-(4-(4-cyclobutylpiperazin-1-yl)phenyl)-6-fluoropyridin-3-yl)-2-methylquinazolin-4(3H)-one] in this work.
An IC50 of 0.1 to 10 nM was found for `Cc1nc2cc(-c3cc(-c4ccc(N5CCN(C6CCC6)CC5)cc4)c(F)nc3N)cc(F)c2c(=O)[nH]1` [I-473, 7-(2-amino-5-(4-(4-cyclobutylpiperazin-1-yl)phenyl)-6-fluoropyridin-3-yl)-5-fluoro-2-methylquinazolin-4(3H)-one] in this work.
An IC50 of 11 to 100 nM was found for `Cc1nc2cc(-c3cc(-c4ccc(N5CCOCC5)c(CN(C)C)c4)c(F)nc3N)ccc2c(=O)[nH]1` [I-474, 7-(2-amino-5-(3-((dimethylamino)methyl)-4-morpholinophenyl)-6-fluoropyridin-3-yl)-2-methylquinazolin-4(3H)-one] in this work.
An IC50 of 11 to 100 nM was found for `Cc1nc2cc(-c3cc(-c4ccc(N5CCOCC5)c(CN(C)C)c4)c(F)nc3N)cc(F)c2c(=O)[nH]1` [I-475, 7-(2-amino-5-(3-((dimethylamino)methyl)-4-morpholinophenyl)-6-fluoropyridin-3-yl)-5-fluoro-2-methylquinazolin-4(3H)-one] in this work.
An IC50 of 0.1 to 10 nM was found for `Nc1nc(F)c(-c2ccc(N3CCN(CCC(F)F)CC3)cc2)cc1-c1ccc2c(c1)CCNC2=O` [I-476, 6-(2-amino-5-(4-(4-(3,3-difluoropropyl)piperazin-1-yl)phenyl)-6-fluoropyridin-3-yl)-3,4-dihydroisoquinolin-1(2H)-one] in this work.
An IC50 of 0.1 to 10 nM was found for `Nc1nc(F)c(-c2ccc(N3CCN(CCC(F)F)CC3)cc2)cc1-c1cc2c(cc1F)C(=O)NCC2` [I-477, 6-(2-amino-5-(4-(4-(3,3-difluoropropyl)piperazin-1-yl)phenyl)-6-fluoropyridin-3-yl)-7-fluoro-3,4-dihydroisoquinolin-1(2H)-one] in this work.
With `Nc1nc(F)c(-c2ccc(C3=CCOCC3)cc2C2CNC(=O)C2)cc1-c1cc2c(cc1F)C(=O)NCC2` (centres unmarked) [I-478, 6-(2-amino-5-(4-(3,6-dihydro-2H-pyran-4-yl)-2-(5-oxopyrrolidin-3-yl)phenyl)-6-fluoropyridin-3-yl)-7-fluoro-3,4-dihydroisoquinolin-1(2H)-one] the IC50 was > 1000 nM.
`Nc1nc(F)c(-c2ccc(C3CCOCC3)cc2C2CNC(=O)C2)cc1-c1cc2c(cc1F)C(=O)NCC2` (centres unmarked) [I-479, 6-(2-amino-6-fluoro-5-(2-(5-oxopyrrolidin-3-yl)-4-(tetrahydro-2H-pyran-4-yl)phenyl)pyridin-3-yl)-7-fluoro-3,4-dihydroisoquinolin-1(2H)-one] was tested, and the IC50 was > 1000 nM.
An IC50 of 11 to 100 nM was found for `CN(C)Cc1cc(-c2cc(-c3ccc4c(=O)[nH]cc(F)c4c3)c(N)nc2F)ccc1N1CCOCC1` [I-480, 6-(2-amino-5-(3-((dimethylamino)methyl)-4-morpholinophenyl)-6-fluoropyridin-3-yl)-4-fluoroisoquinolin-1(2H)-one] in this work.
An IC50 of 0.1 to 10 nM was found for `CC(C)N1CCN(c2ccc(-c3cc(-c4cc(F)c5c(=O)[nH]cc(F)c5c4)c(N)nc3F)cc2)CC1` [I-482, 6-(2-amino-6-fluoro-5-(4-(4-isopropylpiperazin-1-yl)phenyl)pyridin-3-yl)-4,8-difluoroisoquinolin-1(2H)-one] in this work.
An IC50 of 0.1 to 10 nM was found for `Nc1nc(F)c(-c2ccc(N3CCN(CC4CC4)CC3)cc2)cc1-c1cc(F)c2c(=O)[nH]cc(F)c2c1` [I-483, 6-(2-amino-5-(4-(4-(cyclopropylmethyl)piperazin-1-yl)phenyl)-6-fluoropyridin-3-yl)-4,8-difluoroisoquinolin-1(2H)-one] in this work.
An IC50 of 0.1 to 10 nM was found for `Cc1nc2cc(-c3cc(-c4ccc(N5CCN(CCCC(F)F)CC5)cc4)c(F)nc3N)ccc2c(=O)[nH]1` [I-484, 7-(2-amino-5-(4-(4-(4,4-difluorobutyl)piperazin-1-yl)phenyl)-6-fluoropyridin-3-yl)-2-methylquinazolin-4(3H)-one] in this work.
An IC50 of 11 to 100 nM was found for `Cc1nc2cc(-c3cc(-c4ccc(N5CCN(CCC(F)F)CC5)cc4)c(F)nc3N)cc(F)c2c(=O)[nH]1` [I-485, 7-(2-amino-5-(4-(4-(3,3-difluoropropyl)piperazin-1-yl)phenyl)-6-fluoropyridin-3-yl)-5-fluoro-2-methylquinazolin-4(3H)-one] in this work.
